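Five concentrations, 48 hours, 96-well plates. GI50 is the concentration that inhibits growth by half.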 Activity calls are given as the source filed them. Rule as the data show it: active = GI50 up to about 1.1 µM and inactive = higher.
What was measured:
Experiment in all cases: growth of human tumour cells (NCI), 48 h
786-0 = tested on: 786-0
A498 = tested on: A498
A549 = tested on: A549
ACHN = tested on: ACHN
BT-549 = tested on: BT-549
CAKI-1 = tested on: CAKI-1
CCRF-CEM = tested on: CCRF-CEM
COLO 205 = tested on: COLO 205
DU-145 = tested on: DU-145
EKVX = tested on: EKVX
HCC 2998 = tested on: HCC 2998
HCT-116 = tested on: HCT-116
HCT-15 = tested on: HCT-15
HOP-62 = tested on: HOP-62
HOP-92 = tested on: HOP-92
HT-29 = tested on: HT-29
Hs-578T = tested on: Hs-578T
IGROV-1 = tested on: IGROV-1
K562 = tested on: K562
KM12 = tested on: KM12
LOX IMVI = tested on: LOX IMVI
M14 = tested on: M14
MCF7 = tested on: MCF7
MDA-MB-231 = tested on: MDA-MB-231
MDA-MB-435 = tested on: MDA-MB-435
MDA-N = tested on: MDA-N
MOLT-4 = tested on: MOLT-4
Malme-3M = tested on: Malme-3M
NCI-H226 = tested on: NCI-H226
NCI-H23 = tested on: NCI-H23
NCI-H460 = tested on: NCI-H460
NCI-H522 = tested on: NCI-H522
NCI/ADR-RES = tested on: NCI/ADR-RES
OVCAR-3 = tested on: OVCAR-3
OVCAR-4 = tested on: OVCAR-4
OVCAR-5 = tested on: OVCAR-5
OVCAR-8 = tested on: OVCAR-8
PC-3 = tested on: PC-3
RPMI-8226 = tested on: RPMI-8226
RXF 393 = tested on: RXF 393
SF-268 = tested on: SF-268
SF-295 = tested on: SF-295
SF-539 = tested on: SF-539
SK-MEL-28 = tested on: SK-MEL-28
SK-MEL-2 = tested on: SK-MEL-2
SK-MEL-5 = tested on: SK-MEL-5
SK-OV-3 = tested on: SK-OV-3
SN12C = tested on: SN12C
SNB-19 = tested on: SNB-19
SNB-75 = tested on: SNB-75
SR = tested on: SR
SW-620 = tested on: SW-620
T47D = tested on: T47D
TK-10 = tested on: TK-10
U-251 = tested on: U-251
UACC-257 = tested on: UACC-257
UACC-62 = tested on: UACC-62
UO-31 = tested on: UO-31
HL-60 = tested on: HL-60

## O=Cc1ccc(-c2cc(C=O)c(-c3cccs3)[nH]2)s1
786-0
  GI50: 48.4 µM (inactive)
A498
  GI50: 2.6 µM (inactive)
A549
  GI50: 24.8 µM (inactive)
ACHN
  GI50: 41.4 µM (inactive)
BT-549
  GI50: 28.2 µM (inactive)
CAKI-1
  GI50: 9.4 µM (inactive)
CCRF-CEM
  GI50: 20 µM (inactive)
COLO 205
  GI50: 25.1 µM (inactive)
DU-145
  GI50: 42.6 µM (inactive)
EKVX
  GI50: 40 µM (inactive)
HCC 2998
  GI50: 16.6 µM (inactive)
HCT-116
  GI50: 22.8 µM (inactive)
HCT-15
  GI50: 24.8 µM
HOP-62
  GI50: 21.3 µM (inactive)
HOP-92
  GI50: 32.7 µM (inactive)
HT-29
  GI50: 25.1 µM (inactive)
Hs-578T
  GI50: 23.4 µM (inactive)
IGROV-1
  GI50: 15.7 µM (inactive)
K562
  GI50: 25.9 µM (inactive)
KM12
  GI50: 25.8 µM (inactive)
LOX IMVI
  GI50: 25.3 µM (inactive)
M14
  GI50: 24 µM (inactive)
MCF7
  GI50: 19.4 µM (inactive)
MDA-MB-231
  GI50: 29.6 µM (inactive)
MDA-MB-435
  GI50: 25.6 µM (inactive)
MDA-N
  GI50: 18.6 µM (inactive)
MOLT-4
  GI50: 20.2 µM (inactive)
Malme-3M
  GI50: 46.7 µM (inactive)
NCI-H226
  GI50: 4.76 µM (inactive)
NCI-H23
  GI50: 37 µM (inactive)
NCI-H460
  GI50: 25.8 µM (inactive)
NCI-H522
  GI50: 10.3 µM (inactive)
NCI/ADR-RES
  GI50: 26.7 µM (inactive)
OVCAR-3
  GI50: 18.5 µM (inactive)
OVCAR-4
  GI50: 26 µM (inactive)
OVCAR-5
  GI50: > 75 µM (inactive)
OVCAR-8
  GI50: 21.4 µM (inactive)
PC-3
  GI50: 35.6 µM (inactive)
RPMI-8226
  GI50: 53.2 µM (inactive)
RXF 393
  GI50: 35.6 µM (inactive)
SF-268
  GI50: > 75 µM (inactive)
SF-295
  GI50: 21.8 µM (inactive)
SF-539
  GI50: 24.4 µM (inactive)
SK-MEL-28
  GI50: 36.3 µM (inactive)
SK-MEL-2
  GI50: 46.2 µM (inactive)
SK-MEL-5
  GI50: 23 µM (inactive)
SK-OV-3
  GI50: 48.4 µM (inactive)
SN12C
  GI50: 53.6 µM (inactive)
SNB-19
  GI50: 44.9 µM (inactive)
SNB-75
  GI50: 17.1 µM (inactive)
SR
  GI50: 4.05 µM (inactive)
SW-620
  GI50: > 75 µM (inactive)
T47D
  GI50: 8.85 µM (inactive)
TK-10
  GI50: 24.4 µM (inactive)
U-251
  GI50: 18.7 µM (inactive)
UACC-257
  GI50: 48 µM (inactive)
UACC-62
  GI50: 27.5 µM (inactive)
UO-31
  GI50: 26.6 µM (inactive)

## C/C(=N\Nc1nc2ccccc2o1)c1ccc2ccccc2n1
786-0
  GI50: 3.68 µM (inactive)
A498
  GI50: 2.55 µM (inactive)
A549
  GI50: 4.2 µM (inactive)
ACHN
  GI50: 1.47 µM (inactive)
BT-549
  GI50: 20.7 µM (inactive)
CAKI-1
  GI50: 1 µM (active)
CCRF-CEM
  GI50: 2.04 µM (inactive)
COLO 205
  GI50: 3.85 µM (inactive)
DU-145
  GI50: 4.41 µM (inactive)
EKVX
  GI50: 0.458 µM (active)
HCT-116
  GI50: 2.55 µM (inactive)
HCT-15
  GI50: 1.08 µM
HL-60
  GI50: 2.33 µM (inactive)
HOP-62
  GI50: 4.53 µM (inactive)
HT-29
  GI50: 1.89 µM (inactive)
Hs-578T
  GI50: 27.4 µM (inactive)
IGROV-1
  GI50: 0.356 µM (active)
K562
  GI50: 3.67 µM (inactive)
KM12
  GI50: 3.48 µM (inactive)
LOX IMVI
  GI50: 2.86 µM (inactive)
M14
  GI50: 2.57 µM (inactive)
MCF7
  GI50: 6.12 µM (inactive)
MDA-MB-231
  GI50: 2.98 µM (inactive)
MDA-MB-435
  GI50: 6.35 µM (inactive)
MDA-N
  GI50: 6.49 µM (inactive)
MOLT-4
  GI50: 1.97 µM (inactive)
Malme-3M
  GI50: 4.21 µM (inactive)
NCI-H23
  GI50: 8.75 µM (inactive)
NCI-H460
  GI50: 3.7 µM (inactive)
NCI-H522
  GI50: 1.94 µM (inactive)
NCI/ADR-RES
  GI50: 3.22 µM (inactive)
OVCAR-3
  GI50: 0.52 µM (active)
OVCAR-4
  GI50: 1.3 µM (inactive)
OVCAR-5
  GI50: 2.93 µM (inactive)
OVCAR-8
  GI50: 2.89 µM (inactive)
PC-3
  GI50: 1.83 µM (inactive)
RPMI-8226
  GI50: 2.69 µM (inactive)
RXF 393
  GI50: 18.5 µM (inactive)
SF-268
  GI50: 5.06 µM (inactive)
SF-295
  GI50: 3.72 µM (inactive)
SF-539
  GI50: 7.36 µM (inactive)
SK-MEL-28
  GI50: 3.96 µM (inactive)
SK-MEL-2
  GI50: 1.73 µM (inactive)
SK-MEL-5
  GI50: 3.15 µM (inactive)
SK-OV-3
  GI50: 23.1 µM (inactive)
SN12C
  GI50: 3.42 µM (inactive)
SNB-19
  GI50: 8.26 µM (inactive)
SNB-75
  GI50: 11.6 µM (inactive)
SR
  GI50: 0.579 µM (active)
SW-620
  GI50: 4.07 µM (inactive)
T47D
  GI50: 0.279 µM (active)
TK-10
  GI50: 6.92 µM (inactive)
U-251
  GI50: 3.21 µM (inactive)
UACC-257
  GI50: 6.71 µM (inactive)
UACC-62
  GI50: 3.8 µM (inactive)
UO-31
  GI50: 2.09 µM (inactive)

## COc1c2ccoc2c(OC)c2oc(=O)ccc12 [ISOPIMPINELLIN]
786-0
  GI50: > 100 µM (inactive)
A498
  GI50: > 100 µM (inactive)
A549
  GI50: > 100 µM (inactive)
ACHN
  GI50: > 100 µM (inactive)
BT-549
  GI50: > 100 µM (inactive)
CAKI-1
  GI50: 50.5 µM (inactive)
CCRF-CEM
  GI50: > 100 µM (inactive)
COLO 205
  GI50: > 100 µM (inactive)
DU-145
  GI50: > 100 µM (inactive)
EKVX
  GI50: 70.1 µM (inactive)
HCC 2998
  GI50: > 100 µM (inactive)
HCT-116
  GI50: > 100 µM (inactive)
HCT-15
  GI50: > 100 µM
HL-60
  GI50: > 100 µM (inactive)
HOP-62
  GI50: > 100 µM (inactive)
HOP-92
  GI50: 1.99 µM (inactive)
HT-29
  GI50: > 100 µM (inactive)
Hs-578T
  GI50: 62.1 µM (inactive)
IGROV-1
  GI50: > 100 µM (inactive)
K562
  GI50: > 100 µM (inactive)
KM12
  GI50: > 100 µM (inactive)
LOX IMVI
  GI50: > 100 µM (inactive)
M14
  GI50: > 100 µM (inactive)
MCF7
  GI50: > 100 µM (inactive)
MDA-MB-231
  GI50: > 100 µM (inactive)
MDA-MB-435
  GI50: > 100 µM (inactive)
MDA-N
  GI50: > 100 µM (inactive)
MOLT-4
  GI50: > 100 µM (inactive)
NCI-H226
  GI50: 99.1 µM (inactive)
NCI-H23
  GI50: > 100 µM (inactive)
NCI-H460
  GI50: > 100 µM (inactive)
NCI-H522
  GI50: > 100 µM (inactive)
NCI/ADR-RES
  GI50: > 100 µM (inactive)
OVCAR-3
  GI50: > 100 µM (inactive)
OVCAR-4
  GI50: > 100 µM (inactive)
OVCAR-5
  GI50: > 100 µM (inactive)
OVCAR-8
  GI50: > 100 µM (inactive)
PC-3
  GI50: > 100 µM (inactive)
RPMI-8226
  GI50: > 100 µM (inactive)
RXF 393
  GI50: 45.8 µM (inactive)
SF-268
  GI50: > 100 µM (inactive)
SF-295
  GI50: > 100 µM (inactive)
SF-539
  GI50: > 100 µM (inactive)
SK-MEL-28
  GI50: > 100 µM (inactive)
SK-MEL-5
  GI50: 94.4 µM (inactive)
SN12C
  GI50: > 100 µM (inactive)
SNB-19
  GI50: > 100 µM (inactive)
SNB-75
  GI50: 13.1 µM (inactive)
SR
  GI50: > 100 µM (inactive)
SW-620
  GI50: > 100 µM (inactive)
T47D
  GI50: > 100 µM (inactive)
TK-10
  GI50: > 100 µM (inactive)
U-251
  GI50: > 100 µM (inactive)
UACC-257
  GI50: > 100 µM (inactive)
UACC-62
  GI50: 36.2 µM (inactive)
UO-31
  GI50: 95.7 µM (inactive)
